Experimental data: patent US4939125A, “Acyl derivatives of urdamycin A, their preparation and their use” (Hoechst Aktiengesellschaft, priority 1986, dated 1990)
Converted amounts (≈) assume the structure as drawn.

What was measured:
Format in all cases: cell-based
L 1210 leukemia cells [1] = assay: In vitro cytostatic activity, colony formation (Hamburger and Salmon), continuous incubation; settings: L 1210, continuous incubation, 5 to 7 days at 37° C., colonies from 60 μm, carried out 4 times, deviation less than 15%; for IC50: Mus musculus, L1210, read-out: IC50, Strain test, continuous
Description: (§1) The experiment was carried out in accordance with the process of Hamburger and Salmon [New Engl. J. Med. 298, 1321-1327 (1978)]. The medium was replaced by McCoy 5A, and the number of cells was reduced to 5×10^2 cells/plate.
A continuous incubation of cells with various concentrations of the test substance from Examples 1 to 5 and 5',3B,4B,4C,8-penta-O-acetylurdamycin A was carried out. The compounds to be tested were applied to the agar plates before plating-out the cell cultures. The cell cultures then grew for 5 to 7 days in the incubation in an atmosphere of 5% of CO2, 20% of O2 and 95% relative atmospheric humidity at 37° C. After this time, the number of cell colonies having a diameter from 60 μm was determined (in %) relative to the number of cell colonies which had grown in comparison without test substance.
(§2) The IC50 value for continuous and 1-hour incubation was determined from the dose/action curve.
(§3) In all cases, the experiments were carried out 4 times. The deviation in the results was less than 15%.

L 1210 leukemia cells [2] = assay: In vitro cytostatic activity, colony formation (Hamburger and Salmon), 1-hour incubation; settings: L 1210, 1 hour incubation at 37° C., then washed and plated, carried out 4 times, deviation less than 15%; for IC50: Mus musculus, L1210, read-out: IC50, Strain test, 1 hour
Description: as §1
In the test, the cells were incubated at 37° C. for 1 hour at various concentrations of the test substance. The cells were then washed twice with McCoy 5A solution and subsequently applied to agar plates in accordance with the method of Hamburger and Salmon. The cells were subsequently cultivated as described above, and the number of cell colonies was determined (evaluation as in a).
as §2, §3

L 1210 tumor cells = assay: Proliferation experiment (MTT); settings: carried out 4 times, deviation less than 15%; for IC50: Mus musculus, L1210, L 1210, 72 hours at 37° C., read-out: IC50, Proliferation test
Description: L 1210 tumor cells at the exponential growth phase (5×10^3 cells/ml, Roswell Park Memorial Institute (RPMI) medium) were incubated in a microtiter plate with […] recesses for a period of 72 hours at 37° C., 5% of CO2 and 95% relative atmospheric humidity and various concentrations of the test substances from Examples 1 to 5 and also 5',3B,4B,4C,8-penta-O-acetylurdamycin A. After 65 hours, 50 μl of 3-(4,5-dimethylthiazol-2-yl)-2,5-diphenyltetrazolium bromide (MTT) (2.5 mg/ml of MIT in phosphate buffer saline (PBS)) were added. The MTT was reduced by living cells into the red, water-insoluble dyestuff formazan. After a further 7 hours, the supernatant medium was carefully removed. Formazan was dissolved by adding 100 μl of dimethyl sulfoxide per recess and subsequently shaking gently. The extinction of each recess was determined using a multisan 340 CC photometer (Messrs. Flow) at 491 nm. The results were determined from the extinction ratio of cells with test substance to cells without test substance.
as §3

| Compound | IC50 (L 1210 leukemia cells [1]) | IC50 (L 1210 leukemia cells [2]) | IC50 (L 1210 tumor cells) | IC50, Strain test, continuous (L 1210 leukemia cells [1]) | IC50, Strain test, 1 hour (L 1210 leukemia cells [2]) | IC50, Proliferation test (L 1210 tumor cells; L 1210, 72 hours at 37° C.) |
| --- | --- | --- | --- | --- | --- | --- |
| CC(=O)OC1CCC(OC23C(=O)CC(C)(O)CC2(O)C=CC2=C3C(=O)c3ccc(C4CC(OC5CCC(OC6CC(O)C(OC(C)=O)C(C)O6)C(C)O5)C(O)C(C)O4)c(O)c3C2=O)OC1C (stereo not drawn) [4B,4C-Di-O-acetylu. A, 4B,4C-di-O-acetylurdamycin A] | 0.13 µg/mL (≈ 0.14 µM) | 0.85 µg/mL (≈ 0.915 µM) | < 1 µg/mL | – | – | – |
| CCCCCCCC(=O)OC1CC(OC2CCC(OC3CC(c4ccc5c(c4O)C(=O)C4=C(C5=O)C5(OC6CCC(O)C(C)O6)C(=O)CC(C)(O)CC5(O)C=C4)OC(C)C3O)OC2C)OC(C)C1O (stereo not drawn) [3B-O-Octanoylurdamycin A] | – | 0.26 µg/mL (≈ 0.268 µM) | < 1 µg/mL | – | – | – |
| CC(=O)OC1CC(OC2CCC(OC3CC(c4ccc5c(c4O)C(=O)C4=C(C5=O)C5(OC6CCC(O)C(C)O6)C(=O)CC(C)(O)CC5(O)C=C4)OC(C)C3O)OC2C)OC(C)C1O (stereo not drawn) [3B-O-Acetylurdamycin A, 3B-O-acetylurdamycin A] | 0.28 µg/mL (≈ 0.316 µM) | 2.2 µg/mL (≈ 2.48 µM) | < 1 µg/mL | – | – | – |
| CC(=O)Oc1c(C2CC(OC3CCC(OC4CC(OC(C)=O)C(OC(C)=O)C(C)O4)C(C)O3)C(OC(C)=O)C(C)O2)ccc2c1C(=O)C1=C(C2=O)C2(OC3CCC(OC(C)=O)C(C)O3)C(=O)CC(C)(O)CC2(O)C=C1 (stereo not drawn) [Penta-O-acetylu. A, 5',3B,4B,4C,8-penta-O-acetylurdamycin A, reference compound] | 0.042 µg/mL (≈ 0.0398 µM) | 0.12 µg/mL (≈ 0.114 µM) | < 1 µg/mL | – | – | – |
| CC(=O)OC1CCC(OC23C(=O)CC(C)(O)CC2(O)C=CC2=C3C(=O)c3ccc(C4CC(OC5CCC(OC6CC(OC(C)=O)C(OC(C)=O)C(C)O6)C(C)O5)C(OC(C)=O)C(C)O4)c(O)c3C2=O)OC1C (stereo not drawn) [5',3B,4B,4C-Tetra-O-acetylu. A, 5',3B,4B,4C-tetra-O-acetylurdamycin A] | 0.078 µg/mL (≈ 0.077 µM) | 0.25 µg/mL (≈ 0.247 µM) | < 1 µg/mL | – | – | – |
| CC(=O)Oc1c(C2CC(OC3CCC(OC4CC(OC(C)=O)C(OC(C)=O)C(C)O4)C(C)O3)C(OC(C)=O)C(C)O2)ccc2c1C(=O)C1=C(C2=O)C2(OC3CCC(O)C(C)O3)C(=O)CC(C)(O)CC2(O)C=C1 (stereo not drawn) [5',3B,4B,8-Tetra-O-acetylu. A, 5',3B,4B,8-tetra-O-acetylurdamycin A] | 0.075 µg/mL (≈ 0.074 µM) | – | < 1 µg/mL | – | – | – |
| CC(=O)OC1CC(OC2CCC(OC3CC(c4ccc5c(c4O)C(=O)C4=C(C5=O)C5(OC6CCC(O)C(C)O6)C(=O)CC(C)(O)CC5(O)C=C4)OC(C)C3O)OC2C)OC(C)C1OC(C)=O (stereo not drawn) [3B,4B-Di-O-acetylu. A, 3B,4B-di-O-acetylurdamycin A] | 0.11 µg/mL (≈ 0.118 µM) | 0.35 µg/mL (≈ 0.377 µM) | < 1 µg/mL | – | – | – |
| CCCCCCCC(=O)OC1C(O)CC(OC2CCC(OC3CC(c4ccc5c(c4O)C(=O)C4=C(C5=O)C5(OC6CCC(O)C(C)O6)C(=O)CC(C)(O)CC5(O)C=C4)OC(C)C3O)OC2C)OC1C (stereo not drawn) [4B-O-Octanoylurdamycin A] | – | 0.09 µg/mL (≈ 0.0927 µM) | < 1 µg/mL | – | – | – |
| 3B,4B,8-tri-O-acetylurdamycin A [3B,4B,8-Tri-O-acetylu. A] | – | – | – | 0.4 µg/mL | 1.1 µg/mL | < 1 µg/mL |
